One experiment addresses T1, human recombinant Btk (Homo sapiens, UniProt Q06187).
T1 construct: purchased Invitrogen Corporation
Kind of experiment: Human Recombinant Btk Enzyme Assay. The class given is biochemical. Particulars: human recombinant Btk 1 nM, ATP 20 μM, 60 min at room temperature; read-out: IC50 for Inhibition of Btk.

The next experiment has as its system Ramos RA1 B cells. Kind of experiment: Ramos FLIPR Assay. Particulars: goat anti-human IgM 2.5 μg/mL, peak intracellular calcium, read-out: IC50 for Inhibition of Ramos FLIPR assay. The class given is cell-based. For orientation: A change in cytosolic calcium serves as a functional read-out for many receptors and channels.
For experiment [1], the system named is anti-KLH IgG response in BALB/c mice. Kind of experiment: KLH Antigen Challenge and Antibody Measurement. The class given is in vivo, mouse. The conditions noted are these: female BALB/c mice, serum 14 days post-immunization. On the procedure: KLH Antigen Challenge and Antibody Measurement
Female BALB/c mice (6-8 weeks old) were immunized intraperitoneally (IP) with 250 μg keyhole limit hemocyanin (KLH) (Pierce, Rockford, Ill.) in phosphate-buffered saline (PBS). Mice in appropriate groups were dosed as indicated. Blood was collected 14 days post-immunization, serum was separated and analyzed for anti-KLH IgG titers by ELISA. Briefly, 96 well plates were coated with KLH in PBS, blocked, and serial dilutions of test serum samples were added.

T1 sequence (Q06187 whole entry): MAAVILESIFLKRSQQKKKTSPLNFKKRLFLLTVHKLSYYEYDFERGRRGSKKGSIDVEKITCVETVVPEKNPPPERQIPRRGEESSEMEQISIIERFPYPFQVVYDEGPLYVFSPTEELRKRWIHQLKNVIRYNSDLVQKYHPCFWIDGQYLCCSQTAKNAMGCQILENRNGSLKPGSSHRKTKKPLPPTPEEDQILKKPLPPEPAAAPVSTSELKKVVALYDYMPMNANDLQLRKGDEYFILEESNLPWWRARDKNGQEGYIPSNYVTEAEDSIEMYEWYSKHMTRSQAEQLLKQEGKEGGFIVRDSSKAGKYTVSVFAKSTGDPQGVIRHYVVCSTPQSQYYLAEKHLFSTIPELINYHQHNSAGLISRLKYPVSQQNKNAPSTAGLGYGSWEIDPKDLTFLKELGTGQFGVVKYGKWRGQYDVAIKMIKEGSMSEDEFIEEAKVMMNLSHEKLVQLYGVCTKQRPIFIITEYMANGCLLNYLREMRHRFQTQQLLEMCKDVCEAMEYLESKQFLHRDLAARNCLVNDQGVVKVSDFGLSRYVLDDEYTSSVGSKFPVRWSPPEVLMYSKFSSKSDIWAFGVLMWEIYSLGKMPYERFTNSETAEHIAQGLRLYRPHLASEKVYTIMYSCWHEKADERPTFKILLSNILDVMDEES

On to `COC(CO)c1ccc2c(c1)[nH]c1c(C(N)=O)ccc(-c3cccc(N4Cc5ccc(C)cc5C4=O)c3C)c12` (racemic) [Example 75-3], for which the IC50 (in general, the concentration needed to halve the response being measured) is 0.0011 µM at human recombinant Btk and 0.016 µM with Ramos RA1 B cells. On to `CC(=O)NCc1ccc2c(c1)[nH]c1c(C(N)=O)ccc(-c3cccc(-n4cnc5ccc(F)cc5c4=O)c3C)c12` [Example 38-3, 7-(acetamidomethyl)-4-(3-(6-fluoro-4-oxoquinazolin-3(4H)-yl)-2-methylphenyl)-9H-carbazole-1-carboxamide], for which the figures for the 50% inhibitory concentration (IC50) on human recombinant Btk and in the experiment with Ramos RA1 B cells were 0.0014 µM and 0.023 µM, respectively.

For the molecule `Cc1c(-c2ccc(C(N)=O)c3[nH]c4cc(N5CCCC5=O)ccc4c23)cccc1N1Cc2ccccc2C1=O` [Example 62-1, 4-(2-methyl-3-(1-oxoisoindolin-2-yl)phenyl)-7-(2-oxopyrrolidin-1-yl)-9H-carbazole-1-carboxamide], the IC50 in the experiment with Ramos RA1 B cells was determined as 0.25 µM. Same read-out and setting: the same measure for `Cc1ccc2c(c1)CN(c1cccc(-c3ccc(C(N)=O)c4[nH]c5cc(N6CCCC6=O)ccc5c34)c1C)C2=O` [Example 66-5]: 0.26 µM; for `Cc1c(-c2ccc(C(N)=O)c3[nH]c4cc(N5CCOC5=O)ccc4c23)cccc1N1Cc2ccccc2C1=O` [Example 66-10]: 0.27 µM; for `Cc1c(-c2ccc(C(N)=O)c3[nH]c4cc(N5CCNC5=O)ccc4c23)cccc1N1Cc2cc(F)ccc2C1=O` [Example 66-14]: 0.26 µM. On to `Cc1c(-c2ccc(C(N)=O)c3[nH]c4cc(NC(=O)C5CC5)ccc4c23)cccc1N1Cc2ccccc2C1=O` [Example 66-39], for which the IC50 in the experiment on Ramos RA1 B cells was found to be 0.26 µM. On the same count and under the same terms, the same measure for `Cc1ccc2c(c1)CN(c1cncc(-c3ccc(C(N)=O)c4[nH]c5cc(N6CCOC6=O)ccc5c34)c1C)C2=O` [Example 66-40]: 0.27 µM. As to `Cc1c(-c2ccc(C(N)=O)c3[nH]c4cc(C(O)CO)ccc4c23)cccc1-n1cnc2ccc(F)cc2c1=O` (stereo not drawn) [Example 70-13], the IC50 amounted to 0.0007 µM at human recombinant Btk and 0.011 µM in the experiment with Ramos RA1 B cells. With `Cc1c(-c2ccc(C(N)=O)c3[nH]c4cc(C(O)CO)ccc4c23)cccc1-n1cnc2ccc(Cl)cc2c1=O` (stereo not drawn) [Example 70-14], the 50% inhibitory concentration (IC50) worked out at 0.0009 µM at human recombinant Btk and 0.014 µM in the experiment on Ramos RA1 B cells. For `Cc1c(/N=C2\OCc3ccncc32)cccc1-c1ccc(C(N)=O)c2[nH]c3c(c12)CCC(C(C)(C)O)C3` (stereo not drawn) [Example 76-7], the IC50 in the experiment on Ramos RA1 B cells worked out at 0.24 µM. As for `Cc1c(-c2ccc(C(N)=O)c3[nH]c4cc(C(C)(C)O)ccc4c23)cccc1N1Cc2ccc(F)cc2C1=O` [Example 76-15], the IC50 was determined as 0.0024 µM at human recombinant Btk and 0.048 µM in the experiment with Ramos RA1 B cells. The results for the “inhibited the anti-KLH IgG response” value in experiment [1] (10 mg/kg twice daily) and in experiment [1] (30 mg/kg twice daily) were 29% and 56%, respectively. Consider `Cc1c(-c2ccc(C(N)=O)c3[nH]c4cc(C(C)(C)O)ccc4c23)cccc1-n1cnc2cccc(F)c2c1=O` [Example 76-26], for which the IC50 in the experiment on Ramos RA1 B cells is 0.018 µM. Consider `COc1ccc2c(c1)CN(c1cccc(-c3ccc(C(N)=O)c4[nH]c5cc(C(C)(C)O)ccc5c34)c1C)C2=O` [Example 76-32, 7-(2-hydroxypropan-2-yl)-4-(3-(5-methoxy-1-oxoisoindolin-2-yl)-2-methylphenyl)-9H-carbazole-1-carboxamide], for which the IC50 is 0.0032 µM at human recombinant Btk and 0.038 µM in the experiment with Ramos RA1 B cells. Consider `Cc1ccc2ncn(-c3cccc(-c4ccc(C(N)=O)c5[nH]c6c(c45)CCC(C(C)(C)O)C6)c3C)c(=O)c2c1` (stereo not drawn) [Example 76-43], for which, in the experiment on Ramos RA1 B cells, the IC50 was 0.26 µM.

`Cc1c(/N=C2\OCc3ccncc32)cccc1-c1ccc(C(N)=O)c2[nH]c3cc(C(C)(C)OCCO)ccc3c12` [Example 76-49]: the IC50 in the experiment on Ramos RA1 B cells was 0.014 µM. Take `Cc1c(-c2ccc(C(N)=O)c3[nH]c4cc(C(C)(C)O)ccc4c23)cccc1-n1cnc2c(F)cccc2c1=O` [Example 76-51]: the half-inhibitory concentration (IC50) is 0.0014 µM on human recombinant Btk and 0.017 µM with Ramos RA1 B cells.

`Cc1cn2ccn(-c3cccc(-c4ccc(C(N)=O)c5[nH]c6cc(NC(C)C)ccc6c45)c3C)c(=O)c2n1` [Example 80-2]: the IC50 with Ramos RA1 B cells was found to be 0.016 µM. The same measure, in the same setting: the same measure for `Cc1c(Nc2ncnc3c(F)cccc23)cccc1-c1ccc(C(N)=O)c2[nH]c3cc(C(C)(C)O)ccc3c12` [Example 81-1, 4-(3-(8-fluoroquinazolin-4-ylamino)-2-methylphenyl)-7-(2-hydroxypropan-2-yl)-9H-carbazole-1-carboxamide]: 0.015 µM. With `COC1=CC(=O)N(c2cccc(-c3ccc(C(N)=O)c4[nH]c5cc(C(C)(C)O)ccc5c34)c2C)C1` [Example 82-1, 7-(2-hydroxypropan-2-yl)-4-(3-(4-methoxy-2-oxo-2,5-dihydro-1H-pyrrol-1-yl)-2-methylphenyl)-9H-carbazole-1-carboxamide], the half-maximal inhibitory concentration (IC50) was 0.0019 µM on human recombinant Btk and 0.017 µM with Ramos RA1 B cells.

For the origin of these results see patent US8362065B2, “Carbazole carboxamide compounds useful as kinase inhibitors” (Bristol-Myers Squibb Company, priority 2008, dated 2013).
